The results in this text go back to ChEMBL document CHEMBL1201862, “PubChem BioAssay data set” (2004).

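Results reflect a 48-hour exposure of cells in 96-well plates to compound at five concentrations. The concentration for 50% growth inhibition is given as GI50.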 Calls of active or inactive are those of the source. No stated cut-off is given here; in the data, active = GI50 up to about 1.1 µM and inactive = higher.

Test systems include 786-0; ACHN; DU-145; HCT-15; HL-60; HT-29; MDA-MB-435; Malme-3M; NCI-H460; NCI-H522; OVCAR-3; OVCAR-4; SK-MEL-2; SK-MEL-5; SN12C; SNB-75; SW-620; UACC-62; UO-31; HOP-92.
Common to all, as to experiment: NCI anticancer screen, dose series, 48 h

With `CS/C(C#N)=C(\C#N)SC`, the GI50 in the assay with 786-0 was 4.89 µM (inactive); with ACHN it was 4.33 µM (inactive); in the assay on DU-145, 13.6 µM (inactive); in the assay with HCT-15, 2.23 µM; in the assay on HL-60, 1.79 µM (inactive); in the assay with HT-29, 16.1 µM (inactive). For the same molecule, the GI50 with MDA-MB-435 is 14 µM (inactive); with Malme-3M, 11.4 µM (inactive); in the assay with NCI-H460 it was 21.4 µM (inactive); with NCI-H522 it was 1.42 µM (inactive); in the assay on OVCAR-3, 1.77 µM (inactive); with OVCAR-4, 13.4 µM (inactive). For the same molecule, the GI50 is 12.4 µM (inactive) in the assay with SK-MEL-2; 18.2 µM (inactive) with SK-MEL-5; 11.2 µM (inactive) in the assay with SN12C; 52.2 µM (inactive) in the assay on SNB-75; 4.47 µM (inactive) with SW-620; 2.94 µM (inactive) in the assay on UACC-62. In addition, in the assay on UO-31, the GI50 was 4.18 µM (inactive).

Regarding `COC(=O)c1ccccc1CC1Cc2ccc3c(c2C1=O)CCCC3` (stereo unspecified), the GI50 with 786-0 was 35.2 µM (inactive); in the assay on ACHN, 48.1 µM (inactive); with DU-145 it was 48.4 µM (inactive); in the assay on HCT-15, 25.4 µM; in the assay on HL-60, 12.9 µM (inactive); in the assay with HT-29 it was 20.4 µM (inactive). The GI50 in the assay on MDA-MB-435 is 34.6 µM (inactive); with Malme-3M it was 28.1 µM (inactive); with NCI-H460 it was 68.5 µM (inactive); in the assay on NCI-H522, 22.6 µM (inactive); with OVCAR-3, 51.4 µM (inactive); in the assay with OVCAR-4, 23.3 µM (inactive). In addition, the GI50 with SK-MEL-2 was 24.7 µM (inactive); in the assay with SK-MEL-5, 15.5 µM (inactive); in the assay with SN12C it was 37.2 µM (inactive); with SNB-75, 40.4 µM (inactive); with SW-620, 32 µM (inactive); with UACC-62, 57.1 µM (inactive). In the assay on UO-31, the GI50 was 52.8 µM (inactive).

As for `CC1=CC(=O)C(C(O)(C(F)(F)F)C(F)(F)F)C(C)(C)C1` (stereo unspecified), the GI50 is > 10 µM (inactive) in the assay with 786-0; > 10 µM (inactive) in the assay with ACHN; > 10 µM (inactive) with DU-145; more than 10 µM in the assay on HCT-15; > 10 µM (inactive) with HL-60; > 10 µM (inactive) with HT-29. Besides, the GI50 in the assay with MDA-MB-435, in the assay with Malme-3M, in the assay on NCI-H460, in the assay with NCI-H522, with OVCAR-3 and in the assay with OVCAR-4 was > 10 µM (inactive) each time. In addition, the GI50 with SK-MEL-2, with SK-MEL-5, with SN12C, in the assay on SNB-75, in the assay with SW-620 and in the assay on UACC-62 was > 10 µM (inactive) in each case. Also, in the assay on UO-31, the GI50 is > 10 µM (inactive).

In the case of `O=C(Nc1ccc(Cl)cc1)Oc1ccc(C(=S)Nc2ccc(Br)cc2)cc1`, the GI50 is 16 µM (inactive) with 786-0; 12.2 µM (inactive) in the assay on ACHN; 25.8 µM (inactive) with DU-145; 11 µM in the assay on HCT-15; 1.61 µM (inactive) in the assay on HL-60; 2.19 µM (inactive) in the assay with HT-29. For the same molecule, the GI50 is 12.4 µM (inactive) in the assay on MDA-MB-435; 20.2 µM (inactive) in the assay with Malme-3M; 4.85 µM (inactive) in the assay on NCI-H460; 10.4 µM (inactive) in the assay with NCI-H522; 16.1 µM (inactive) in the assay with OVCAR-3; 7.4 µM (inactive) with OVCAR-4. For the same molecule, the GI50 in the assay on SK-MEL-2 is 6.62 µM (inactive); with SK-MEL-5 it was 6.1 µM (inactive); in the assay with SW-620, 20.3 µM (inactive); in the assay on UACC-62, 1.63 µM (inactive); in the assay on UO-31 it was 18.2 µM (inactive).

For the molecule `CC(=O)O[C@H]1C(=O)[C@@]2(C)[C@H]([C@H](OC(=O)C3CCCCC3)[C@]3(O)C[C@H](OC(=O)[C@H](O)[C@@H](NC(=O)C4CCCCC4)C4CCCCC4)C(C)=C1C3(C)C)[C@]1(OC(C)=O)CO[C@@H]1C[C@@H]2O`, the GI50 was 0.0171 µM (active) with 786-0; 0.168 µM (active) in the assay with ACHN; 0.151 µM (active) with DU-145; 0.143 µM in the assay with HCT-15; 0.00586 µM (active) with HL-60; 0.0427 µM (active) in the assay on HOP-92. Besides, the GI50 was 0.00256 µM (active) in the assay with MDA-MB-435; 0.0323 µM (active) with Malme-3M; 0.00723 µM (active) in the assay on NCI-H460; 0.00658 µM (active) in the assay with NCI-H522; 0.00386 µM (active) in the assay on OVCAR-3; 0.538 µM (active) in the assay on OVCAR-4. The GI50 in the assay on SK-MEL-5 was 0.0147 µM (active); with SN12C, 0.0942 µM (active); in the assay with SNB-75, 0.0508 µM (active); with SW-620, 0.01 µM (active); in the assay on UACC-62, 0.0163 µM (active); in the assay with UO-31, 0.344 µM (active).

Consider `Nc1ccc(CCN2CCN(CCCc3ccccc3)CC2)cc1`, for which the GI50 is 44.3 µM (inactive) in the assay on 786-0; > 100 µM (inactive) in the assay on ACHN; 70.3 µM (inactive) in the assay on DU-145; 21.7 µM with HCT-15; 26.6 µM (inactive) in the assay with HL-60; 16.2 µM (inactive) with HT-29. The GI50 is > 100 µM (inactive) with MDA-MB-435; 38.5 µM (inactive) in the assay with Malme-3M; 63.4 µM (inactive) in the assay on NCI-H460; 39.2 µM (inactive) in the assay with NCI-H522; 48.1 µM (inactive) with OVCAR-3; 53.1 µM (inactive) with OVCAR-4. In addition, the GI50 in the assay on SK-MEL-2 is > 100 µM (inactive); in the assay on SK-MEL-5, 29.6 µM (inactive); with SN12C, > 100 µM (inactive); with SW-620 it was > 100 µM (inactive); in the assay on UACC-62, > 100 µM (inactive); with UO-31, 56.9 µM (inactive).

As to `CC(=O)/C=C/CCC(=O)/C=C/C(=O)OC(CCC(=O)/C=C/C(=O)O)CC(C)=O` (stereo unspecified), the GI50 in the assay on 786-0 is > 100 µM (inactive); in the assay with ACHN, > 100 µM (inactive); in the assay with DU-145 it was > 100 µM (inactive); in the assay on HCT-15 it was 92.5 µM; with HL-60 it was 32.8 µM (inactive); in the assay with HOP-92, > 100 µM (inactive). Besides, the GI50 in the assay on HT-29 was > 100 µM (inactive); in the assay with MDA-MB-435 it was > 100 µM (inactive); in the assay with Malme-3M, > 100 µM (inactive); in the assay with NCI-H460, > 100 µM (inactive); in the assay with NCI-H522, 96.4 µM (inactive); in the assay with OVCAR-3, > 100 µM (inactive). The GI50 in the assay on OVCAR-4 was > 100 µM (inactive); in the assay on SK-MEL-5, > 100 µM (inactive); in the assay with SN12C it was > 100 µM (inactive); with SW-620, > 100 µM (inactive); in the assay on UACC-62, 1.19 µM (inactive).

In the case of `OC1(C(Sc2cc(C(F)(F)F)cc(C(F)(F)F)c2)Sc2cc(C(F)(F)F)cc(C(F)(F)F)c2)C=CCCC1` (stereo unspecified), the GI50 was 2.39 µM (inactive) in the assay on 786-0; 1.85 µM (inactive) in the assay on ACHN; 2.53 µM (inactive) in the assay on DU-145; 1.37 µM with HCT-15; 1.38 µM (inactive) in the assay on HL-60; 2.83 µM (inactive) with HOP-92. The GI50 was 1.08 µM (active) in the assay on HT-29; 1.86 µM (inactive) in the assay on MDA-MB-435; 2.77 µM (inactive) in the assay on Malme-3M; 1.33 µM (inactive) in the assay with NCI-H460; 1.74 µM (inactive) in the assay on NCI-H522; 2.04 µM (inactive) in the assay with OVCAR-3. The GI50 with OVCAR-4 was 1.74 µM (inactive); in the assay with SK-MEL-5 it was 9.53 µM (inactive); with SN12C it was 2.14 µM (inactive); with SNB-75, 2.15 µM (inactive); in the assay on SW-620, 1.91 µM (inactive); in the assay on UACC-62, 1.99 µM (inactive). Moreover, the GI50 in the assay on UO-31 was 1.38 µM (inactive).
